# Legend:
# PPARγ [1] = assay: Cellular distribution of PPARγ in Caco-2 cells (immunocytochemistry, western blot)
# RelA [NF-κB p65] = assay: Immunofluorescence localisation of RelA in Caco-2 cells; type: cell-based
# Caco-2 cells = assay: Inflammatory cytokine gene expression in Caco-2 cells exposed to S. enteritidis (macroarray, Northern, real-time PCR); type: cell-based; conditions: 10^8 S. enteritidis plus drug 10-30 μM, 2 hours, Northern
# PPARγ [2] = assay: Northern hybridisation of PPAR mRNA in Caco-2 cells; type: cell-based; conditions: Caco-2 cells, 10^8 S. enteritidis plus 30 μM ligand, 2 hours
# [3] = 800 nM for 4 hours, cells treated with S. enteritidis alone
compound,measurement,setting,value
"CCC(=C/[C@H](C)C/C=C/C(C)=C/[C@@H](C)C(=O)[C@@H](C)[C@H](O)[C@@H](C)C/C(C)=C/C(=O)O)/C=C/[C@@H]1OC(=O)C=C[C@@H]1C [LMB, leptomycin B]",Nucleocytoplasmic shuttling of PPARγ induced by co-culture of S. enteritidis and B. thetaiotaomicron,"PPARγ [1]; Caco-2 cells, inhibitor treatment",not blocked
same,RelA in nuclei after inhibition of CRM-1-dependent nuclear export,RelA [NF-κB p65]; cells co-cultured with S. enteritidis and B. thetaiotaomicron,caused an accumulation of RelA in nuclei
"CCCCC/C=C/C=C1/C(=O)C=C[C@@H]1C/C=C\CCCC(=O)O [15d-PGJ2, 15-deoxy-Δ^12,14-prostaglandin J2, reference compound]","Activation of inflammatory cytokine expression (TNF-α, IL-8, COX-2) by S. enteritidis",Caco-2 cells,attenuated
same,PPARγ mRNA after PPAR ligand,PPARγ [2],decreased
"CC(/C=C/C(=O)NO)=C\[C@@H](C)C(=O)c1ccc(N(C)C)cc1 [TSA, trichostatin A]",Exit of PPARγ to cytosol after HDAC inhibition,PPARγ [1]; [3],accelerated exit of PPARγ to cytosol
same,PPARγ localisation in S. enteritidis-treated Caco-2 cells with inhibitor,PPARγ [1]; S. enteritidis-treated Caco-2 cells,induce punctate cytosolic labeling and export of PPARγ from the nucleus
same,p65 nuclear accumulation after HDAC inhibition,RelA [NF-κB p65]; [3],partial p65 accumulation

# Reference: patent US7998474B2, “Methods for treating an inflammatory disease of the bowel” (Rowett Research Institute, priority 2001, dated 2011)
